Legend:
Coagulation factor X = Coagulation factor X (Homo sapiens, UniProt P00742); test: Inhibition of human factor 10a using substrate S-2765 preincubated for 30 mins followed by substrate addition measured after 20 mins by micro plate reader method
Rattus norvegicus [1] = test: Toxicity in po dosed rat assessed as increase in tail bleeding time administered 60 mins prior to tail transection measured over 30 mins; type: organism-based; settings: in vivo, 0.5 h
Plasma [2] = test: Anticoagulant activity in rabbit plasma assessed as increase in activated partial thromboplastin time after 10 mins by coagulometer; type: functional, Oryctolagus cuniculus
Rattus norvegicus [3] = test: Antithrombotic activity in rat model of arteriovenous shunt assessed as reduction in thrombus weight at 10 mg/kg, po administered 60 mins prior to shunt opening; type: functional, organism-based
Plasma [4] = test: Anticoagulant activity in rabbit plasma assessed as increase in prothrombin time after 10 mins by coagulometer; type: functional, Oryctolagus cuniculus
Prothrombin = Prothrombin (Homo sapiens, UniProt P00734); test: Inhibition of human thrombin using substrate S-2238 preincubated for 30 mins followed by substrate addition measured after 20 mins by micro plate reader method
Rattus norvegicus [5] = test: Antithrombotic activity in po dosed rat model of arteriovenous shunt assessed as reduction in thrombus weight administered 60 mins prior to shunt opening; type: functional, organism-based

Sequence of Coagulation factor X (P00742 41-179 limits assumed): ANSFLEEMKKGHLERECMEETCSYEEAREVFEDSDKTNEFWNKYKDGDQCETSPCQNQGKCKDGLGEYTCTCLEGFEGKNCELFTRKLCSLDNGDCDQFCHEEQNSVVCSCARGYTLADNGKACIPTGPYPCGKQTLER
Sequence of Coagulation factor X (P00742 235-488 limits assumed): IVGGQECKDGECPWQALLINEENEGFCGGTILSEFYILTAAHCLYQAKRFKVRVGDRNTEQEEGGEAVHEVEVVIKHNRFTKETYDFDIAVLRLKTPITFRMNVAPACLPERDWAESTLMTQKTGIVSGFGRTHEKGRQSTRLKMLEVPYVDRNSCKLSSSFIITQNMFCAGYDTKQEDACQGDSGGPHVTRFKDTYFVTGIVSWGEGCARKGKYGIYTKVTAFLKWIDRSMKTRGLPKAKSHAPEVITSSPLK

| Compound | IC50 (Coagulation factor X) [nM] | also measured |
| --- | --- | --- |
| COc1ccc2c(c1)C(=O)N(c1ccc(N3CCCCC3=O)cc1)CN2C(=O)Cc1ccc(NC(C)=O)cc1 | 234 | – |
| COc1ccc2c(c1)C(=O)N(c1ccc(N3CCOCC3=O)cc1)CN2C(=O)Cc1ccc(Cl)c(Cl)c1 | 345 | – |
| COc1ccc2c(c1)C(=O)N(c1ccc(N3CCCCC3=O)cc1)CN2C(=O)c1ccc(Cl)cc1 | 52000 | – |
| COc1ccc(CC(=O)N2CN(c3ccc(N4CCCCC4=O)cc3)C(=O)c3cc(OC)ccc32)cc1 | 887 | – |
| COc1ccc2c(c1)C(=O)N(c1ccc(N3CCOCC3=O)cc1)CN2C(=O)c1ccc(CCl)cc1 | 1410 | – |
| COc1ccc2c(c1)C(=O)N(c1ccc(N3CCCCC3=O)cc1)CN2C(=O)Cc1ccccc1 | 4060 | – |
| COc1ccc2c(c1)C(=O)N(c1ccc(N3CCOCC3=O)cc1)CN2C(=O)Cc1ccc(Cl)cn1 | 157 | – |
| COc1ccc2c(c1)C(=O)N(c1ccc(N3CCCCC3=O)cc1)CN2C(=O)c1cccc(Cl)c1 | 243000 | – |
| COc1ccc2c(c1)C(=O)N(c1ccc(N3CCCCC3=O)cc1)CN2C(=O)c1ccc(Cl)s1 | 179000 | – |
| COc1ccc(CC(=O)N2CN(c3ccc(N4CCOCC4=O)cc3)C(=O)c3cc(OC)ccc32)cc1 | 717 | – |
| COc1ccc2c(c1)C(=O)N(c1ccc(N3CCCCC3=O)cc1)CN2C(=O)Cc1ccc(Cl)cc1 | 127 | – |
| COc1ccc2c(c1)C(=O)N(c1ccc(N3CCCCC3=O)cc1)CN2C(=O)Cc1cccc(Cl)c1 | 532 | – |
| COc1ccc(NC(=O)c2ccc(C(=N)N(C)C)cc2)c(C(=O)Nc2ccc(Cl)cn2)c1 [BETRIXABAN] | – | Activity (Rattus norvegicus [1]): Dose-dependent effect; 2aPTT (Plasma [2]): 1.1 µM; Activity (Rattus norvegicus [3]): Dose-dependent effect; 2PT (Plasma [4]): 2.4 µM |
| COc1ccc(CC(=O)N2CN(c3ccc(N4CCCCC4=O)cc3)C(=O)c3cc(OC)ccc32)c(OC)c1 | 1270 | – |
| COc1ccc2c(c1)C(=O)N(c1ccc(-n3ccccc3=O)cc1)CN2C(=O)Cc1ccc(Cl)cc1 | 165 | – |
| COc1ccc2c(c1)C(=O)N(c1ccc(N3CCOCC3=O)cc1)CN2C(=O)CCc1ccc(Cl)cc1 | 2210 | – |
| COc1cccc(C(=O)N2CN(c3ccc(N4CCCCC4=O)cc3)C(=O)c3cc(OC)ccc32)c1 | 354000 | – |
| COc1ccc2c(c1)C(=O)N(c1ccc(N3CCOCC3=O)cc1)CN2C(=O)Cc1ccc(Cl)cc1 | 42 | 2aPTT (Plasma [2]): 16.1 µM; 2PT (Plasma [4]): 11.6 µM; IC50 (Prothrombin): 81000 nM |
| COc1ccc2c(c1)C(=O)N(c1ccc(N3CCCCC3=O)cc1)CN2C(=O)c1ccccc1 | 546000 | – |
| COc1ccc(C(=O)N2CN(c3ccc(N4CCCCC4=O)cc3)C(=O)c3cc(OC)ccc32)cc1 | 113000 | – |
| COc1ccc2c(c1)C(=O)N(c1ccc(N3CCOCC3=O)cc1)CN2C(=O)Cc1ccc(Cl)s1 | 21 | Activity (Rattus norvegicus [1]): Dose-dependent effect; Activity (Rattus norvegicus [5]): Dose-dependent effect; 2aPTT (Plasma [2]): 0.6 µM; 2PT (Plasma [4]): 1.2 µM; IC50 (Prothrombin): 67000 nM |
| COc1ccc2c(c1)C(=O)N(c1ccc(N3CCCCC3=O)cc1)CN2C(=O)Cc1ccccc1Cl | 1340 | – |
| COc1ccc2c(c1)C(=O)N(c1ccc(N3CCOCC3=O)cc1)CN2C(=O)Cc1ccc(Cl)cc1Cl | 498 | – |

Source: ChEMBL document CHEMBL4041477, “Design, synthesis and biological evaluation of novel 2,3-dihydroquinazolin- 4(1H)-one derivatives as potential fXa inhibitors” (Eur J Med Chem, 2017)
